SMILES strings stand for the structures.

The IC50 is the midpoint of a concentration-inhibition curve. As usually defined, the Ki is the dissociation constant of the complex between target and ligand, obtained from inhibition or displacement. Low readings indicate tighter binding, high ones weaker binding. One may read the inhibition as the percentage by which the read-out fell short of the control.

For one assay, the target named is T1, Serotonin 5HT7 (Homo sapiens, UniProt P34969).
T1 construct: host or cells: CHO cells
T1 sequence (P34969 whole entry): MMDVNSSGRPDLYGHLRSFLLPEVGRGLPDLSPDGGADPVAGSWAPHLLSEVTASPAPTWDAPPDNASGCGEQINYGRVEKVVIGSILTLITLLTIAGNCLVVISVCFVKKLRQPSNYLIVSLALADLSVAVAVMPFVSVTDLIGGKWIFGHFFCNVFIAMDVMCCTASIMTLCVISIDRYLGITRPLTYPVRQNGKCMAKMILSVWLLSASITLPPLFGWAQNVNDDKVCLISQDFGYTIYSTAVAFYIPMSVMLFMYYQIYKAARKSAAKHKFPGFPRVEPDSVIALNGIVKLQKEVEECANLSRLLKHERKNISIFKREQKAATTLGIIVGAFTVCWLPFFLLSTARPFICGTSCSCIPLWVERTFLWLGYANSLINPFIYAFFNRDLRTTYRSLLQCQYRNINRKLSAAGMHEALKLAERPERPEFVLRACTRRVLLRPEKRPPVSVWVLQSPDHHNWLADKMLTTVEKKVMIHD
Briefly: Radioligand binding, Serotonin 5HT7 ([3H]LSD). The protocol:
(§1) The assays utilized human neuroreceptors and were performed under the experimental parameters set forth in Table 2 using standard techniques.
(§2) For Table 3, IC50 values were determined by non-linear, least squares regression analysis using Data Analysis Toolbox™ (MDL Information Systems, San Leandro, Calif., USA). Inhibition constants (KI) were calculated using the equation of Cheng and Prusoff (Cheng, Y., et al. Biochem. Pharmacol. 22:3099-3108, 1973) using the observed IC50 of the tested compound, the concentration of radioligand employed in the assay, and the values for the KD of the ligand. The Hill coefficient (nH), defining the slope of the competitive binding curve, was calculated using the Data Analysis Toolbox™. Biochemical assay results are presented as the percent inhibition of specific binding or activity unless indicated otherwise. The experiments summarized in Table 3 utilized human dopamine D1, D2 s, D21, D3, D4.2, D4.4, serotonin 5HT1A, 5HT2A, 5HT2C, 5HT6, 5HT7, dopamine transporter (DAT), serotonin transporter (SERT) and the norepinephrine transporter (NET), as indicated in Table 3.

Assay [1] addresses T2, Serotonin transporter (SERT) (Homo sapiens, UniProt P31645).
T2 construct: host or cells: HEK-293 cells
Briefly: Radioligand binding, Serotonin transporter (SERT) ([3H]Paroxetine). The method, then: as §1, §2

A further assay has as its target T3, Serotonin 5HT2A (Homo sapiens, UniProt P28223).
T3 construct: host or cells: CHO-K1 cells
The assay is described as follows: Radioligand binding, Serotonin 5HT2A ([3H]Ketanserin). The method, then: as §1, §2

Assay [2] deals with T4, Norepinephrine transporter (NET) (Homo sapiens, UniProt P23975).
T4 construct: host or cells: MDCK cells
T4 sequence (P23975 whole entry): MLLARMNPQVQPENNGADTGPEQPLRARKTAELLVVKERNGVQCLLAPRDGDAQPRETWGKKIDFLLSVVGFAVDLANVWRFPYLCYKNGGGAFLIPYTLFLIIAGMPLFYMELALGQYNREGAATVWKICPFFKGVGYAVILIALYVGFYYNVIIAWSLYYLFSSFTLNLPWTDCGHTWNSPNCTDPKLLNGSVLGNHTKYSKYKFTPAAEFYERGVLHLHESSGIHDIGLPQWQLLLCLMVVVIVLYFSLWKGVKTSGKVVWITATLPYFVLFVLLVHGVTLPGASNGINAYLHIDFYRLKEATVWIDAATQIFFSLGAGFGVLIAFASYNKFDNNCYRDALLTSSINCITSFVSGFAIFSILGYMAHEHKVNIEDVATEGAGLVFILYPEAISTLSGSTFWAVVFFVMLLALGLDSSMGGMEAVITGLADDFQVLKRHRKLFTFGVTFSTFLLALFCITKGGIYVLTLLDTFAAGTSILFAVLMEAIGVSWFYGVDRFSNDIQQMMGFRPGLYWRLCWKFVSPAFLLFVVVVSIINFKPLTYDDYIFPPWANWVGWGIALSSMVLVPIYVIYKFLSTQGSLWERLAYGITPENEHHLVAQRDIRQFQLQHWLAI
The assay is described as follows: Radioligand binding, Norepinephrine transporter (NET) ([125I]RTI-55). The method, then:
as §1, §2

For assay [3], the system named is ckr mouse. Briefly: Prepulse inhibition (PPI) of the startle reflex in ckr mice. The class given is in vivo. As to conditions: 10 mg/kg. The protocol:
To obtain the ckr mouse model presented in this Example, a representative compound 2 as set forth in Example 3 was used to investigate a standard measure of sensorimotor gating of the startle reflex. Sensorimotor gating of the startle reflex was assessed via measures of prepulse inhibition (PPI), which is the reduction in startle magnitude when the startling stimulus is preceded immediately by a weak prepulse. This measurement is valuable because the relative loss of PPI has been established in inherited neurodevelopmental disorders, such as schizophrenia in humans, as well as in rats after treatment with certain classes of drugs, including serotonin (5-HT) agonists. In animal models, the PPI test is considered to have good face, predictive and construct validity for sensorimotor gating deficits in schizophrenia.
A stock solution of compound 2 was dissolved in DMSO, and then diluted to 10 mg/10 ml with distilled water such that the final concentration of DMSO was 0.5%. […]
Startle reactivity was measured using a startle chamber (SR-LAB, San Diego Instruments, San Diego, Calif.). […]
The protocol for measuring PPI was adapted from known techniques. […] The startle response was recorded as the average movement detected over 65 ms following the pulse. […]
The startle amplitude was measured as the average startle response for the pulse-alone trials. […]

Assay [4] relates to ckr mouse. The assay is described as follows: Motor activity in chakragati (ckr) mice. The class given is in vivo. As to conditions: 10 mg/kg intraperitoneal, 20 minutes after injection, monitored 15 minutes. The method, then:
The mouse also presents lateral ventricular enlargement, which may mirror neuropathological observations in shizophrenia. […] We have further validated this model by testing risperidone, clozapine, haloperidol and pimozide in the ckr mouse. The behavioral output was assayed by measuring the rate of hyperactivity and circling after administration.
A stock solution of compound 2 was dissolved in DMSO, and then diluted to 10 mg/10 ml with distilled water such that the final concentration of DMSO was 0.5%. Each animal received 10 mg/kg of the test drug in a volume of 0.1 ml per 10 g. Additional drugs were tested in parallel in a similar manner.
Twenty ckr mice (male and female, 3 months old) were randomly assigned to receive the test drug (compound 2) or 0.5% DMSO vehicle. The drug was tested in 5 mice. Each treatment was separated by a minimum washout period of 3 days. On the day of testing, mice were brought into the behavioral test room and allowed to acclimatize for at least 1 hour. They then received intraperitoneal injections of the 0.1 ml/10 g (10 mg/kg) of the test drug solution or vehicle. They were returned to their cage and 20 minutes later they were placed in a 190 mm diameter, 300 mm deep circular recording chamber. […] The mice were monitored with an overhead video camera for 15 minutes. […] The total distance moved, the velocity of movement, and the time spent moving were calculated. […]

T3 sequence (P28223 whole entry): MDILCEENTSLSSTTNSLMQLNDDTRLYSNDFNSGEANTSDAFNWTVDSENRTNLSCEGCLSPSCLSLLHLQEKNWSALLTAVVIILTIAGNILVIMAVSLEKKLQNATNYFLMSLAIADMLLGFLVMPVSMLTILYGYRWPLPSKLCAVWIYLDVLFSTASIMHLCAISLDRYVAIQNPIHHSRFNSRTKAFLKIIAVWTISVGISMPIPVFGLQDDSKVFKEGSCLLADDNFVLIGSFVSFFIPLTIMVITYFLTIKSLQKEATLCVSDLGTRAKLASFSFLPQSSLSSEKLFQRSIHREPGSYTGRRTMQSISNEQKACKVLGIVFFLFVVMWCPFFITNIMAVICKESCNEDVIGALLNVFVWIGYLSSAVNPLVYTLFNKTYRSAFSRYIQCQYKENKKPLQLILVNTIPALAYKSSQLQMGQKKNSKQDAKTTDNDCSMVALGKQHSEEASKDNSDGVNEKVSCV
T2 sequence (P31645 whole entry): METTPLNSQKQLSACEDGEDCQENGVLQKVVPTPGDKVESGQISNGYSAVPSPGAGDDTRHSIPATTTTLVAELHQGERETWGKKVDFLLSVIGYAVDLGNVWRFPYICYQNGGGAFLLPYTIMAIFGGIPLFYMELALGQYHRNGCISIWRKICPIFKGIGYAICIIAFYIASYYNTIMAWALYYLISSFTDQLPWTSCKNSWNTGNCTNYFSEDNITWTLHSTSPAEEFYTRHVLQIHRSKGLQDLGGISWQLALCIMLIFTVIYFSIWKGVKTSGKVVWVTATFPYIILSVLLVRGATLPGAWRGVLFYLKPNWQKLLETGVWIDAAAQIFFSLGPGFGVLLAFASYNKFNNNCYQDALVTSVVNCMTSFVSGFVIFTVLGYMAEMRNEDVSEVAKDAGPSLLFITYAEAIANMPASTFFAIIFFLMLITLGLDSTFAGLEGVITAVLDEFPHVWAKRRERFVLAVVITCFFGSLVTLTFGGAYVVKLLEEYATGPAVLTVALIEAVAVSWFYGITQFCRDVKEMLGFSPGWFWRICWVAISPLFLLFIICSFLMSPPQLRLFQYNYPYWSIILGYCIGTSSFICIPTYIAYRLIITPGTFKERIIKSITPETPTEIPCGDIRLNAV

Take `COC(=O)[C@@H](c1ccc(-c2ccccc2)cc1)[C@H]1C=CCCN1` [Compound 2]: the IC50 came to 25.8 µM on Serotonin 5HT7, 14.3 µM in assay [1], 0.797 µM at Serotonin 5HT2A and 10 µM in assay [2]. In addition, the Ki on Serotonin 5HT7 stood at 14.8 µM; in assay [1], 2.33 µM; on Serotonin 5HT2A it was 0.228 µM; in assay [2] it was 9.94 µM. Further, the inhibition at 30 µM was 53% at Serotonin 5HT7 (Serotonin 5HT7, 30 μM, read-out: Percentage Inhibition) and 70% in assay [1] (Serotonin transporter (SERT), 30 μM, read-out: Percentage Inhibition). Further, the nH at Serotonin 5HT7 (Serotonin 5HT7, Hill coefficient) is 0.774; in assay [1] (Serotonin transporter (SERT), Hill coefficient), 1.24; on Serotonin 5HT2A (Serotonin 5HT2A, Hill coefficient), 1.02; in assay [2] (Norepinephrine transporter (NET), Hill coefficient) it was 1.1. The inhibition at 10 µM came to 48% in assay [1] (Serotonin transporter (SERT), 10 μM, read-out: Percentage Inhibition); 94% at Serotonin 5HT2A (Serotonin 5HT2A, 10 μM, read-out: Percentage Inhibition); 51% in assay [2] (Norepinephrine transporter (NET), 10 μM, read-out: Percentage Inhibition). Moreover, the inhibition at 1 µM at Serotonin 5HT2A (Serotonin 5HT2A, 1 μM, read-out: Percentage Inhibition) was 61%. Further, the “PPI over the control across all pre-pulse intensities” value in the assay on ckr mouse [3] was “trend of increased PPI”. In the assay with ckr mouse [4], the time spent moving result is recorded as “significantly decreased the time spent moving”. Besides, in the assay on ckr mouse [4], the velocity of movement result is listed as “trend towards decreased velocity”.

Source of the values: patent US7851487B2, “Use of tetrahydropyridines in the treatment of central nervous system disorders” (The Research Foundation of State University of New York, priority 2006, dated 2010).
